89 compounds from a melting point compilation (Tetko et al.; mined from patent text by program, amines drawn as free bases though some values may be those of a salt) can be followed below.

As usually defined, the melting point is the temperature of the solid-liquid transition.

For `CCCC(CCC)CCCC(N)=O`, the melting point was found to be 44 °C.
`CCN(CC)Cc1cnc(-c2ncn3c2CN(C)C(=O)c2cc(F)ccc2-3)o1`: the melting point was in the range of 182 to 184 °C.
Compound `COC=C(C(=O)OC)c1cccc([N+](=O)[O-])c1` returned a melting point of 101 to 103 °C.
To `CS(=O)(=O)OCCCc1ccc(OCc2coc(/C=C/c3ccccc3)n2)cc1` belongs 111 to 112 °C; to `O=C(O)c1ccc(Oc2ccc3c(c2)CCN(CCN2CCCC2)C3=O)cc1`, 99 to 100 °C.
To `CN(C)C=CC(=O)c1ccc(OCC(O)CN2CCN(c3ccc(Cl)cc3)CC2)cc1` (centres undefined) belongs 185 °C; to `CCOC(=O)c1ccccc1-n1c(CCl)nc2ccc(Cl)cc2c1=O`, 195 to 197 °C.
For the compound `Cn1cc(C(=O)c2ccc(F)cc2)cc1C(=O)c1ccncc1`, the melting point lay in the range of 155 to 157 °C.
As for `Fc1ccc(C=Nn2cncn2)cc1`, the figure is 118 to 120 °C.
For `CCOC(=O)N=P(c1ccccc1)(c1ccccc1)c1ccccc1C`, the melting point fell in the range of 113 to 114 °C.
As for `CC(C)n1nc(-c2cnc(N)nc2-c2cccnc2)ccc1=O`, the melting point turned out to be 204 °C.
As for `COC1=NC2C=C(C(=O)NCC3CC3)C(NC(=O)c3cc(C(F)(F)F)nn3-c3ncccc3Cl)=C(Cl)C2S1` (centres undefined), the figure is 199 to 201 °C; as for `CNCC1CN(c2c(F)cc3c(=O)c(C(=O)O)cn(C4CC4)c3c2F)CC1C` (centres undefined), 252 to 254 °C; as for `CCC1(C)OC(c2ccc(S(N)(=O)=O)cc2)=C(c2ccccc2)C1=O` (centres undefined), 153 to 154 °C.
`COc1nc2ncccc2c2nc(S(=O)(=O)Cl)nn12` gave a melting point of 172 to 174 °C.
To `COC(=O)c1ccc(OCCCOc2ccccc2)cc1O` belongs 90 to 92 °C.
As for `CN1CCN(C(=O)c2cc(N)cc(C(F)(F)F)c2)CC1`, the figure is 114 to 115 °C; as for `N#CCc1cc2c(-c3ccccc3)c(CC(=O)Nc3ccc(Cl)cc3C(F)(F)F)c(=O)oc2cc1Cl`, 247 to 248 °C; as for `Clc1ccc(-c2noc(CCC#Cc3ccccn3)n2)cc1`, 75 to 77 °C.
As for `CCc1ncnc(NC(CC)c2ccc(Oc3ncccn3)cc2)c1Cl` (centres undefined), the figure is 100 to 112 °C; as for `Cc1sc(-c2ccccc2)nc1COc1cc(CO)on1`, 84 to 85 °C; as for `Cc1ccc(C(O)c2c(OCc3ccccc3)c(=O)ccn2CCO)cc1` (centres undefined), 206 to 207 °C.
On to `O=C1CCC(N2Cc3c(OCc4ccc(CN5CCN(CC6CC6)CC5)cc4)cccc3C2=O)C(=O)N1` (centres undefined), for which the melting point is 176 to 178 °C.
To `Cc1cc(-n2c(=O)[nH]c3ccccc32)cc2c1NC(=O)CC2C` (centres undefined) belongs 250 to 254 °C.
To `CCOC(=O)c1cn(-c2cc3ccccc3cn2)cn1` belongs 161 to 162 °C.
In the case of `Cn1cc(OS(C)(=O)=O)c(=O)c2ccc(Cl)cc21`, the melting point fell in the range of 157 to 158 °C.
Turning to `CCC1SC(=O)NN=C1c1ccc(OC(F)F)c(OC)c1` (centres undefined), the melting point amounted to 97 °C.
To `CC(C)N1CCCN=C1SC1=C(O)CC(c2ccccc2)OC1=O` (centres undefined) belongs 103 to 105 °C; to `Fc1ccc2ncc3ncn(-c4ccccc4F)c3c2c1`, 162 to 163 °C.
To `Nc1ccnc(SCCCCN2C(=O)c3ccccc3C2=O)n1` belongs 164 to 167 °C.
As for `CCCc1c(OCc2cccn3c(=O)c(CC(=O)OCC)cnc23)ccc(C(C)=O)c1O`, the figure is 134 to 135 °C.
In turn, `Cc1cc(SCc2ccc(OCc3ccc(F)cc3)cc2)ccc1OCC(=O)O` displayed a melting point of 154 to 155 °C.
To `CCc1n[nH]c(CC)c1CCCCCCOc1ccc(OC)cc1[N+](=O)[O-]` belongs 103 to 105 °C.
To `O=C(Cc1ccc(SC(F)(F)F)cc1)NCc1ccc2c(c1)CN(C1CCC(=O)NC1=O)C2=O` (centres undefined) belongs 208 to 210 °C.
Turning to `CCn1c(=O)c2[nH]c(/C=C/c3ccc(-c4ccccc4)cc3)nc2n(CC)c1=O`, the melting point is greater than 270 °C.
To `OC[C@H]1O[C@@H]1c1cc(F)cc(F)c1` belongs 48 to 50 °C; to `O=C(O)c1ccc(O)c(OCc2ccccc2)c1`, 167 to 171 °C.
To `C=Cc1c(C)oc(-c2ccc(S(C)(=O)=O)cc2)c(Oc2ccc(F)cc2F)c1=O` belongs 184 °C.
As for `CCOC(CSc1ccc2c(c1)CCN2C(C)=O)OCC`, the figure is less than 52 °C; as for `CN(C)C(=O)c1cnn(-c2ccc(Br)cc2)c1C#N`, 131 to 133 °C.
`O=c1[nH]c2cc(Br)ccc2c(=O)n1Cc1ccc(I)cc1F` displayed a melting point of 303 to 304 °C.
As for `Fc1ccc(/C=C/C2=CCN(Cc3c[nH]c4ncccc34)CC2)cc1F`, the figure is 208 to 210 °C; as for `CCc1nn2c(-c3cccc(C(F)(F)F)c3)ccnc2c1C#N`, 144 to 146 °C; as for `COc1ccc(C2=NC(NC(=O)CCc3ccc(Cl)cc3Cl)C(=O)N(C)c3ccccc32)cc1` (centres undefined), 188 to 189 °C.
As for `CC(C)(C)CN1C(=O)C(=O)N(c2ccc(F)cc2)C1=S`, the figure is 165 to 166 °C.
For `CCCc1c(OCCCSc2ccc(C(=O)CCCO)cc2)ccc(C(C)=O)c1O`, the melting point is 73 to 75 °C.
As for `COc1nc(C)nc(NC(=O)NS(=O)(=O)c2cccnc2Oc2ccccc2)n1`, the figure is 176 to 178 °C.
To `Nc1nc(N)nc(C2CCN(c3ccccc3)CC2)n1` belongs 202 to 204 °C.
To `Cc1cc(C)cc(N(CCCC(=O)O)Cc2ccc3nc(NCCCN4CCOCC4)n(Cc4nc(C)ccc4O)c3c2)c1` belongs 121 °C.
The compound `COC(=O)CC(=O)C[C@@H]1CC(=O)N1` displayed a melting point of 45 to 46.5 °C.
As for `COc1ccc(OCCCBr)c(C2Sc3ccccc3N(C)C2=O)c1` (single isomer, unassigned; (-)), the figure is 77 to 78 °C; as for `O=c1cc(-c2ccc(F)cc2)c2c([nH]1)C1CCC(C2)C1` (centres undefined), greater than 300 °C.
On to `C[C@@H]1O[C@](/C=C/C2CC2)(C(F)(F)F)c2cc(F)ccc2NC1=O` (relative stereo), for which the melting point was 180 to 182 °C.
To `Cc1nnc(-c2ccc3occ(-c4ccc5c(c4)C(C)(C)CS5(=O)=O)c3c2)o1` belongs 242 to 243 °C; to `Cc1c(-c2ccccc2)nc2ccc(-c3cccc(CO)c3)cn12`, 222 to 223 °C; to `CCO[C@@H](C)c1nnc([C@H](C)OCC)n1N[C@H](CC)C(OC)OC`, 88 °C.
To `CCCCN=C(CS(C)=O)c1cccc(OC)c1O` (centres undefined) belongs 125 to 127 °C; to `O=[N+]([O-])c1ccc(C=C(Cl)Cl)o1`, 74 to 75 °C.
As for `CCC(CC)N(C)c1cc(C(=O)OC)ccc1N1C(=O)CCC1(CO)CO`, the figure is 142 to 143 °C.
`CCCCCCCCCCCCc1c[nH]c(C(=O)OC)c1` gave a melting point of 68 to 69 °C.
For the compound `CCOC(OCC)C(=O)Nc1ccc(Cl)cc1N`, the melting point was 89 to 90 °C.
Consider `CCOc1ccc(C2=NN(CCCCBr)C(=O)[C@H]3CC=CC[C@@H]23)cc1OCC` (relative stereo), for which the melting point is 73 to 75 °C.
To `Nc1ccc(OCOc2ccc(N)cc2[N+](=O)[O-])c([N+](=O)[O-])c1` belongs 181 °C.
As for `CN(C)Cc1nc(C#N)nn1-c1ccc(Cl)cc1C(=O)c1ccccc1Cl`, the figure is 117 to 119 °C; as for `CS(=O)(=O)NCc1ccc([N+](=O)[O-])cc1`, 136 to 139 °C.
To `CNc1cc(O)c(OCCO)cc1[N+](=O)[O-]` belongs 210 °C; to `COC(=O)NCCc1cccc(-c2ccnc3c(C#N)cnn23)c1`, 162 to 164 °C.
`O=S(=O)(CCl)c1ccc(O)c(Br)c1` yielded a melting point of 158 to 160 °C.
The compound `COC(=O)c1cc2ccc3c(c2c(-c2ccc4c(c2)OCO4)c1C(=O)OC)OCO3` showed a melting point of 157 to 159 °C.
As for `Nc1nc2ccc(CO)cc2n1Cc1cccc2cccnc12`, the figure is 230 °C; as for `O=C(NC(=O)C(c1ccccc1)c1ccccc1)OC1CCCC1`, 120 to 123 °C; as for `COc1ccc2[nH]c3c([N+](=O)[O-])ccc(Cl)c3c(=O)c2c1Cl`, 251 to 253 °C.
To `COC(=O)C1=C(C)NC2=C(C(=O)CN(CC(O)COc3cccc(C)c3C)C2)C1c1c(F)ccc(Cl)c1Cl` (centres undefined) belongs 190 to 193 °C.
`Cc1noc(NS(=O)(=O)c2cc(Cl)sc2Cl)c1Br` came in with a melting point of 135 to 138 °C.
As for `Cc1ccnc(C(=O)c2[nH]c3ccc(Cl)cc3c2CC(=O)N2CCC(N)C2)c1` (centres undefined), the figure is 179 °C; as for `Cc1c(F)c(F)c(CNc2ccc(Cl)c(O)c2)c(F)c1F`, 52 °C; as for `COC(=O)c1cc(Br)cc([N+](=O)[O-])c1SCc1ccccc1`, 65 to 66 °C.
The compound `Cn1ncnc1COc1nn2c(-c3ccccc3F)nnc2cc1C1CC(F)(F)C1` registered a melting point of 178 °C.
To `O=c1c2ccccc2nnn1CCCN1CC=C(c2c[nH]c3ccccc23)CC1` belongs 189 °C.
To `CCOC(=O)N1CCC(Nc2ccc(Cl)cc2N)CC1` belongs 150 °C; to `C#CCN(Cc1cc2c(=O)n(C)c(CN3CCCCC3)nc2cc1Cl)c1ccc(C(=O)OC(C)(C)C)cc1`, 162 to 163 °C.
As for `CNC12CCCCC1CCc1cc(O)ccc12` (centres undefined), the figure is 191 °C; as for `Cc1ccccc1NC(=O)Nc1ccc(CC(=O)O)cc1`, 205 to 206 °C; as for `CC(=NC(=Nc1ccccc1)N1CCOCC1)NC(C)C`, 142 to 145 °C.
In turn, `Clc1ccc(N2CCN(Cc3n[nH]c4ccccc34)CC2)cc1` had a melting point of 223 to 224 °C.
To `COc1ccc(SC2CC(=O)N2)cc1OC` (centres undefined) belongs 145 to 146 °C; to `COc1cc2ccc(C(=O)CCC(=O)O)cc2cc1OC`, 215 to 229 °C; to `Cn1cnnc1C(CCl)(c1ccc(Cl)cc1)c1ccc2c(c1)c(-c1cccc(Cl)c1)cc(=O)n2C` (centres undefined), 260 °C.
To `COc1ccc(-n2nc(NC(=O)OC(C)(C)C)c3csc(N)c3c2=O)cc1` belongs 99 to 101 °C.
